The source made the active and inactive calls.
What was measured:
Galanin receptor type 3 = Galanin receptor type 3 (Homo sapiens, UniProt O60755); test: Fluorescence-based cell-based primary high throughput dose response assay to identify antagonists of the Galanin Receptor 3 (GalR3).; format: functional
cells [1] = format: functional, cell-based; conditions: HEK-CNG
CHO = CHO cell viability loss, potency – luminescence, cytotoxicity control for TLR9-MyD88 binding inhibitor project, dose response (AID 588339); format: functional, cell-based, hamster; conditions: Cricetulus griseus;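 also: CHO cells stably coexpressing TLR9 and MyD88 fusions from primary screen; compound exposure lasted 48 hours before viability readout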
Beta Lactamase = Beta Lactamase (Pseudomonas aeruginosa, UniProt Q932Y6); test: BLA reporter interference, concentration series – BLA reporter cells, FRET fluorescence, artefact control for TLR9-MyD88 binding inhibitor project, dose response (AID 588341); format: cell-based;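 also: cell based assay in CHO-K1 cells stably expressing beta-lactamase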
Chain of Beta Lactamase (Q932Y6 whole entry): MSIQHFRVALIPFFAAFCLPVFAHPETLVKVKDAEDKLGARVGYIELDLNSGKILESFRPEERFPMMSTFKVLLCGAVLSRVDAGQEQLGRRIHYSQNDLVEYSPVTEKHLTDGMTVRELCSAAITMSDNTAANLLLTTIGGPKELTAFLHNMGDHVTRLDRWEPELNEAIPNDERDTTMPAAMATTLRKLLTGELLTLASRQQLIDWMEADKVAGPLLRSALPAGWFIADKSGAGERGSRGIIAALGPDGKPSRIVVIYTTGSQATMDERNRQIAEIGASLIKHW

[2] = biological target: T1, Sentrin-specific protease 8 (Homo sapiens, UniProt Q96LD8); format: functional
T1 sequence (Q96LD8 whole entry): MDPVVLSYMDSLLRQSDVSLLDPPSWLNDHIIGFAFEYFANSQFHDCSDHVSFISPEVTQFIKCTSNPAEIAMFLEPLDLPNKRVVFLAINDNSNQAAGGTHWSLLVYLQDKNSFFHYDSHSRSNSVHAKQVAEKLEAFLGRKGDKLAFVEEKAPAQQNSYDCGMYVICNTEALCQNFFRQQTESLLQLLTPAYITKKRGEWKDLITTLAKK

[3] = biological target: T1, Sentrin-specific protease 8; format: functional; remark: listed apart in the source
Caspase-6 = biological target: T2, Caspase-6 (Homo sapiens, UniProt P55212); test: inhibition of CASP6 peptide cleavage – biochemical, VEID-R110 fluorescence, cherry-pick, dose response (AID 720632)
T2 sequence (P55212 whole entry): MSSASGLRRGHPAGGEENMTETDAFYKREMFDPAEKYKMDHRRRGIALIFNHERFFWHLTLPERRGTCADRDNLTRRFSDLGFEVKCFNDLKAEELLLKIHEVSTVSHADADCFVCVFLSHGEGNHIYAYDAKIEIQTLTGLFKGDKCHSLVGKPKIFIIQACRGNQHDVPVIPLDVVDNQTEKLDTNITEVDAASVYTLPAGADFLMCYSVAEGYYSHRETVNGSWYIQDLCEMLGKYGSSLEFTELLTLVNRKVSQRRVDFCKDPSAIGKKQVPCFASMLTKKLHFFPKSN

[4] = biological target: T3, Apoptotic protease-activating factor 1 (Homo sapiens, UniProt O14727); format: functional
T3 sequence (O14727 whole entry): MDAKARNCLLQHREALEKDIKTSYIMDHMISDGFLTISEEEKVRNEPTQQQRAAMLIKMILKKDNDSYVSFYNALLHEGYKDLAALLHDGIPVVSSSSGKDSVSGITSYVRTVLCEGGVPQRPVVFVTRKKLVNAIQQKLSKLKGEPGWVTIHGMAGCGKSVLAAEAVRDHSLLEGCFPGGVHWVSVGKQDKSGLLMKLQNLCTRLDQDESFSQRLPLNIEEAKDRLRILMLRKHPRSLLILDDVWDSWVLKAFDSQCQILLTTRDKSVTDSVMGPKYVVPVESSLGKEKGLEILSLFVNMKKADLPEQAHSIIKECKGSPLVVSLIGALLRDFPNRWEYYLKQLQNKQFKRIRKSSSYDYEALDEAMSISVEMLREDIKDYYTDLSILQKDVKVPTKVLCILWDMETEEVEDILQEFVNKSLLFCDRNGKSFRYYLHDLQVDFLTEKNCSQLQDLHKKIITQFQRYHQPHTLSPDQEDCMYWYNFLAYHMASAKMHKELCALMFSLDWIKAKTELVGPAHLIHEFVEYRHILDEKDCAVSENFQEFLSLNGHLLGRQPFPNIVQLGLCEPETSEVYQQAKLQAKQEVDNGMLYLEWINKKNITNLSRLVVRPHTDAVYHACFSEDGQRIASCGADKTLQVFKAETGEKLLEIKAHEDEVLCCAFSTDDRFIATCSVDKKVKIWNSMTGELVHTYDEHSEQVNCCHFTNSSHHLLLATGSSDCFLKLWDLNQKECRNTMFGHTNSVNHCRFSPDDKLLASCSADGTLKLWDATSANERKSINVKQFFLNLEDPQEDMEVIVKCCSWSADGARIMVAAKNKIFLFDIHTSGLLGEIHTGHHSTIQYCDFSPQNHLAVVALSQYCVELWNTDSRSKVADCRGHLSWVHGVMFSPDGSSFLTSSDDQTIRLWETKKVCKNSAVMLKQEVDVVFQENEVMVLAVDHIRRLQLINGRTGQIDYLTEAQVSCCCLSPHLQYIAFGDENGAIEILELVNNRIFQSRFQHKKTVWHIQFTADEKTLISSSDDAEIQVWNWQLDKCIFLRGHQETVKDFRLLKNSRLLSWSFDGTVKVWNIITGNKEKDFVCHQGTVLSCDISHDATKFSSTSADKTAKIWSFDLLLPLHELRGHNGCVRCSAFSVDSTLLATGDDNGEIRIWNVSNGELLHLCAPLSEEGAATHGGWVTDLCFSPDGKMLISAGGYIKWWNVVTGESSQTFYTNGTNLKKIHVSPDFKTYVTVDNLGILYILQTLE

Streptokinase A = biological target: T4, Streptokinase A (Streptococcus pyogenes serotype M1, UniProt P10520); test: viability-normalized secreted streptokinase activity reduction – plasminogen activation absorbance, OD405, dose response (AID 1914); format: functional, Streptococcus pyogenes M1 GAS;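 also: secreted streptokinase activity via plasminogen activation per viability signal from cell pellet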
T4 sequence (P10520 whole entry): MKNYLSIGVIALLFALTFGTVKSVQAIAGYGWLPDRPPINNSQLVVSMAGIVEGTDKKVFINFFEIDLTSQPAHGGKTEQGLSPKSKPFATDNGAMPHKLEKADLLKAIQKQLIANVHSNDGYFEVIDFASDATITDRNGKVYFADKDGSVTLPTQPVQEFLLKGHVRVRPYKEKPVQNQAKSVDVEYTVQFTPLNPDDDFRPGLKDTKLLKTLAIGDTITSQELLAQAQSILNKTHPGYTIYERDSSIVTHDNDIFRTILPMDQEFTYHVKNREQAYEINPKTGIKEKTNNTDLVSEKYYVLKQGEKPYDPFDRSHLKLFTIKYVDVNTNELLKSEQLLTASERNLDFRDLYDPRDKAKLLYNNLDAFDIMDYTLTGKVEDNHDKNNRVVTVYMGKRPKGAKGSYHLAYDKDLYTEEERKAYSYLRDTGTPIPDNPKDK

[5] = biological target: T5, Endoribonuclease toxin MazF (Escherichia coli K-12, UniProt P0AE70); test: activation of MazEF endoribonuclease cleavage – biochemical, fluorescence, single-stranded RNA substrate, uHTS hits, dose response (AID 588481); format: functional
T5 sequence (P0AE70 whole entry): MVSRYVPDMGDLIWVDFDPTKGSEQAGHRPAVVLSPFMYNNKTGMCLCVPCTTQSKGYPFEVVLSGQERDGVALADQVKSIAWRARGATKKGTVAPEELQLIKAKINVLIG

[6] = biological target: T5, Endoribonuclease toxin MazF; test: substrate-only fluorescence increase artefacts – biochemical, single-stranded RNase substrate, counter-screen for MazEF activator project, dose response (AID 588502); format: functional
[7] = biological target: T6, RNA-binding protein pos-1 (Caenorhabditis elegans, UniProt G5EF15); test: disruptors of C. elegans POS-1 RNA interaction – biochemical, fluorescence polarization, dose response (AID 1964);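 also: purified POS-1 fused to maltose binding protein made in E. coli; potency of compounds blocking POS-1 binding to fluorescent RNA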
T6 sequence (G5EF15 whole entry): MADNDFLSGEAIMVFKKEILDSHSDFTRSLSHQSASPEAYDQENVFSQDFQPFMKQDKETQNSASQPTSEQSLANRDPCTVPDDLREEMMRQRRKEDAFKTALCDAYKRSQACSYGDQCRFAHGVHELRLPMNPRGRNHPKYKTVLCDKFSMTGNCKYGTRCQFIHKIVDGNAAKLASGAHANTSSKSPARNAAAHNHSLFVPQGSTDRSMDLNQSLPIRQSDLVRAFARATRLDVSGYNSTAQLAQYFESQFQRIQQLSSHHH

[8] = biological target: T7, Zinc finger protein mex-5 (Caenorhabditis elegans, UniProt Q9XUB2); test: potency of MEX-5 RNA-binding blockers – biochemical, C. elegans, fluorescence polarization, dose response (AID 1960)
T7 sequence (Q9XUB2 whole entry): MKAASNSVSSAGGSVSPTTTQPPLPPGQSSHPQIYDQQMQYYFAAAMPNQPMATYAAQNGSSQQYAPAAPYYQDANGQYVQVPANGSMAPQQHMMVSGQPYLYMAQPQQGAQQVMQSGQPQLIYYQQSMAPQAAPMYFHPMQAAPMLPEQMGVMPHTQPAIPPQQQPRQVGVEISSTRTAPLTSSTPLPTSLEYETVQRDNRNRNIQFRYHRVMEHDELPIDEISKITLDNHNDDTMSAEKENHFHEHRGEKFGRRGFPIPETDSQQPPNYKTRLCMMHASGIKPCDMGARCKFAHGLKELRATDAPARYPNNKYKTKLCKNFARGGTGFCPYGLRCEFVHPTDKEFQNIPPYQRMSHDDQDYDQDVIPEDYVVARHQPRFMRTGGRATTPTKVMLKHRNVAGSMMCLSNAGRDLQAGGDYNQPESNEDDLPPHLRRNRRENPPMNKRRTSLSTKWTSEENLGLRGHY

[9] = biological target: T8, Corticotropin-releasing factor receptor 2/Corticotropin-releasing factor-binding protein (Homo sapiens, UniProt P24387+Q13324); test: activators of CRF receptor 2 with binding protein – uHTS hits, confirmation (AID 602473); format: functional; conditions: read-out: EC50_Mean
T8 sequence (Q13324 whole entry): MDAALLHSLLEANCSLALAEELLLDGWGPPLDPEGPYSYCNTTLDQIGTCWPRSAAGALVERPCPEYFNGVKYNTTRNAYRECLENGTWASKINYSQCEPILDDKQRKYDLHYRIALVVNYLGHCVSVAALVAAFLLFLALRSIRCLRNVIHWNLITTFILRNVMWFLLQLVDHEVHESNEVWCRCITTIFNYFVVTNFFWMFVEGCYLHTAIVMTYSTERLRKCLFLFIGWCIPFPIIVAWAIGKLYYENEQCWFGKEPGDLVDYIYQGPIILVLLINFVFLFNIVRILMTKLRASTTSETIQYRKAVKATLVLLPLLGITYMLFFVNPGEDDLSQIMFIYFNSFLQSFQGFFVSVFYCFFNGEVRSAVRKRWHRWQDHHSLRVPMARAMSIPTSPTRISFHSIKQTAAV
T8 sequence (P24387 whole entry): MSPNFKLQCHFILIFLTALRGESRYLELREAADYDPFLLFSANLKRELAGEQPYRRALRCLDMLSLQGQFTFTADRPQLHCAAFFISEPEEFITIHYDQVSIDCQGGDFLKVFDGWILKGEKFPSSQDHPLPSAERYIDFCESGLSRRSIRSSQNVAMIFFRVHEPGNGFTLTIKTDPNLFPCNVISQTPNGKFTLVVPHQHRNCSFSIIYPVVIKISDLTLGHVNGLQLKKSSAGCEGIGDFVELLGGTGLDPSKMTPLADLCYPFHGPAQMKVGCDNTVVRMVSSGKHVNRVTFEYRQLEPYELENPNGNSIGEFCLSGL

[10] = biological target: Hepatocyte nuclear factor 4-alpha (Homo sapiens, UniProt P41235); format: functional, cell-based;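 also: biochemical luminescence-based dose-response counterscreen measuring inhibition of HNF4 dimerization, run alongside a screen for blockers of ABHD5–perilipin-5 interaction; split luciferase complementation of HNF4 fusion proteins in cell lysate measuring dimerization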
Chain of Hepatocyte nuclear factor 4-alpha (P41235 whole entry, the tested form may be a part): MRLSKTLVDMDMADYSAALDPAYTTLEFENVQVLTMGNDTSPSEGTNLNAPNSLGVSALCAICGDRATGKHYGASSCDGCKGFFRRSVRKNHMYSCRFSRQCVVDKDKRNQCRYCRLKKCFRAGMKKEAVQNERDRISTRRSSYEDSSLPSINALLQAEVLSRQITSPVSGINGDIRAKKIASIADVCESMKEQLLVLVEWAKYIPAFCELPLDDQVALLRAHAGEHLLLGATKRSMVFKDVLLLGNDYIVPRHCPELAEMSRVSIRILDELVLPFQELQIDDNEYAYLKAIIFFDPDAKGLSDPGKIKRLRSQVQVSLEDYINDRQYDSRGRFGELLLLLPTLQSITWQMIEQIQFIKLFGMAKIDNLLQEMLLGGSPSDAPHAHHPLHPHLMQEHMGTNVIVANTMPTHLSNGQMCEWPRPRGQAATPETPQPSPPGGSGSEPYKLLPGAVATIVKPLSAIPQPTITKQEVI

A549 = test: viability loss in A549 cells – cell-based, plate reader, cherry-pick samples, cytotoxicity control, dose response (AID 687028); format: functional; conditions: Homo sapiens
cells [11] = format: functional, cell-based
cells [12] = format: functional, cell-based; remark: listed apart in the source
[13] = OVCAR8 cell viability loss – plate reader, dry powder samples, PAX8 project, dose response (AID 743197); format: functional, cell-based; conditions: OVCAR-8
Paired box protein Pax-8 = Paired box protein Pax-8 (Homo sapiens, UniProt Q06710); test: PAX8 transcriptional activity inhibition in RMG-I – RMG-I cells, luciferase, cherry-pick, dose response (AID 687027); format: functional, cell-based;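 also: luciferase reporter driven by Pax8 target thyroperoxidase promoter measured by SteadyGlo luminescence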
Chain of Paired box protein Pax-8 (Q06710 whole entry): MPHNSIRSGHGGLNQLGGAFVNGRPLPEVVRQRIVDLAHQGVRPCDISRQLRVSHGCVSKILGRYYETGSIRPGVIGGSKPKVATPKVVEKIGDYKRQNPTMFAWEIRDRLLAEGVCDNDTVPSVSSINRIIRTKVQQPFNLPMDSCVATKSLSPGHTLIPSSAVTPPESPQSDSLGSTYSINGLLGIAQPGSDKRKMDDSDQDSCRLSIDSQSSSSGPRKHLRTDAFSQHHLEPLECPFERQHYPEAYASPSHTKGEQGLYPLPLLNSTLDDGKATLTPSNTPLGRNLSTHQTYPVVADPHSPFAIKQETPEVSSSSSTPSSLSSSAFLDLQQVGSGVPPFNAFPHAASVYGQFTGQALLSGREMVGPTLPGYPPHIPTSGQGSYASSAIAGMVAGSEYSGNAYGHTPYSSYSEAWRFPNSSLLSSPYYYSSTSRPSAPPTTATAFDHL

[14] = Dd2 parasite growth inhibition in erythrocytes – SYBR Green, dry powder samples, set 9, dose response (AID 1159568); format: functional, cell-based

Chain of Galanin receptor type 3 (O60755 whole entry): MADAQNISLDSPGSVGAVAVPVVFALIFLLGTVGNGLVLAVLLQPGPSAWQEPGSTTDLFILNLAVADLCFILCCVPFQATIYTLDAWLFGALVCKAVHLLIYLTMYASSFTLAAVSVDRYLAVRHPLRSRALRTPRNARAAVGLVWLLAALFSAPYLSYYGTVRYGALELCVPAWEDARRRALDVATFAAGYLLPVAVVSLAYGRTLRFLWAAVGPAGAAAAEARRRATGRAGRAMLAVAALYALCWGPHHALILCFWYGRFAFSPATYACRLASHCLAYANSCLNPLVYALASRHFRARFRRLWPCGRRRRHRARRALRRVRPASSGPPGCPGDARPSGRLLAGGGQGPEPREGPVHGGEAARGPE

CCC(CC)C(=O)Nc1ccc([N+](=O)[O-])cn1
IC50 (Galanin receptor type 3): > 29.9 µM (inactive)
EC50 (cells [1]): > 29.9 µM (inactive)

N#C/C(=C/c1ccc(-c2ccc(S(N)(=O)=O)cc2)o1)c1nc2ccccc2s1
IC50 (CHO): 22.1 µM (inactive)
IC50 (Beta Lactamase): 5.09 µM (active)

Cc1cccc(N2C(=O)Cc3ccccc3C2=O)c1
IC50 [2]: > 100 µM (inactive)
IC50 [3]: 5.17 µM (active)
AC50 (Caspase-6): 22.7 µM (active)

CCCCC[n+]1ccn(C2=C([N-]S(=O)(=O)c3ccc(Br)cc3)C(=O)c3ccccc3C2=O)c1
IC50 [4]: 9.66 µM (active)
EC50 (Streptokinase A): > 150 µM (not active)

Oc1ccccc1-c1nc(NCc2ccco2)c2ccccc2n1
EC50 [5]: > 99 µM (inactive)
EC50 [6]: > 99 µM (inactive)

COc1ccc(N/C=C2/C(=O)N(c3cccc(C)n3)C(=O)c3ccccc32)c(OC)c1
EC50 [5]: > 99 µM (inactive)
EC50 [6]: 14.5 µM (active)
EC50 [7]: > 300 µM (not active)
EC50 [8]: 55.4 µM (inconclusive)
EC50 [9]: 8.64 µM (active)

CC(C)(C)CN1CCN(Cc2nc(-c3ccc(F)cc3)cs2)CC1CCO (configuration not stated)
IC50 (Galanin receptor type 3): 2.83 µM (active)
EC50 (cells [1]): > 29.9 µM (inactive)

N#Cc1ccccc1OCc1cn(CC(=O)c2ccc(O)cc2)nn1
IC50 [10]: 6.36 µM (active)

Cc1cccnc1C(NC(=O)C1CCN(CCCc2ccccc2)CC1)c1ccc(Cl)cc1 (configuration not stated)
AC50 (A549): 27.9 µM (active)

O=C(O)C1C2CCC(C2)C1C(=O)NCCc1ccccc1 (configuration not stated)
EC50 (cells [11]): > 29.9 µM (inactive)
IC50 (cells [12]): > 29.9 µM (inactive)

CC(C)(C)NC(=O)C(c1ccc(C#N)cc1)n1c(=O)c(-c2ccco2)nc2ccccc21 (configuration not stated)
IC50 [10]: 1.47 µM (active)

CS(=O)(=O)N1C[C@@H]2N[C@H](C1)[C@@H]2c1ccc(-c2ccccc2)cc1
AC50 [13]: > 60 µM (inactive)
AC50 (Paired box protein Pax-8): 4.42 µM (active)
AC50 [14]: 9.14 µM (active)
AC50 (A549): 17.7 µM (active)

— ChEMBL document CHEMBL1201862, “PubChem BioAssay data set” (2004)
